The values that follow come from patent US20120149080A1, “YEAST PRODUCTION CULTURE FOR THE PRODUCTION OF BUTANOL” (Butamax(TM) Advanced Biofuels LLC, priority 2010, published 2012).

Series [1] deals with Issatchenkia orientalis PNY0660. The series is described as follows: Glucose utilization rate in high cell density culture in corn test medium. The conditions noted are these: for Glucose utilization rate: 30 C., 0 h to 6 h, 2.7 gdcw/L, corn test medium. The class given is cell-based. The protocol:
Strain Issatchenkia orientalis PNY0660, was derived from ATCC 20381 strain that was previously referred to as Candida acidothermophilium. Strain PNY0660 was plated from a freezer vial onto YPD agar (Teknova, Hollister, Calif.; Cat. #Y1000) and incubated overnight at 30° C. Cells from the YPD plate were inoculated into a 50 ml pre-culture of YPD broth (Teknova, Hollister, Calif.; Cat. #Y5000) with an initial OD600 of 0.06 to 0.08, and this culture was grown for 5 hours in an air shaker at 30° C. An aliquot of the pre-culture was inoculated into 200 ml of YPD broth with an initial OD600 of 0.6, and this culture was incubated with aeration at 30° C. for approximately 17 hours. The optical density of the culture was determined, the culture was centrifuged, and the sugar consumption rate was determined in corn test medium. Corn test medium contained 0.2% casamino acids and 2% glucose and 100 mM MES buffer pH 5.25 and per liter contained (i) salts: ammonium sulfate 5.0 g, potassium phosphate monobasic 2.8 g, and magnesium sulfate heptahydrate 0.5 g, (ii) vitamins: biotin (D−) 0.40 mg, Ca D(+) panthotenate 8.00 mg, myo-inositol 200.00 mg, pyridoxol hydrochloride 8.00 mg, p-aminobenzoic acid 1.60 mg, riboflavin 1.60 mg, folic acid 0.02 mg, niacin 30.0 mg, and thiamine 30 mg; and (iii) trace elements: EDTA (Titriplex 1117) 99.38 mg, zinc sulphate heptahydrate 29.81 mg, manganese chloride dehydrate 5.57 mg, cobalt(II)chloride hexahydrate 1.99 mg, copper(II)sulphate pentahydrate 1.99 mg, Di-sodium molybdenum dehydrate 2.65 mg, calcium chloride dehydrate 29.81 mg, iron sulphate heptahydrate 19.88 mg, and boric acid.
20 ml cultures (2.7 gdcw/L) in corn test medium were transferred to flasks that contained 0.0%, 0.5%, 1.0%, 1.5%, 1.75% or 2.0% isobutanol. Time of addition of cells was referred to as 0 hours. At various times, samples (1.5 ml) were withdrawn and centrifuged at 10,000 rpm for 2 minutes in a microfuge (Sorvall Biofuge pico). The supernatant was filtered through a 0.2 μm filter (Pall Life Sciences, Port Washington, N.Y.) Pall GHP Acrodisc 13 mm Syringe Filter with 0.2 μm GHP Membrane), the filtrate was diluted ten-fold, and the glucose concentration was determined using a YSI Glucose Analyzer (YSI 2700 Select; YSI, Inc., Yellow Springs, Ohio).

Series [2] is described as follows: Alcohol concentration of cultures after 24 hours by HPLC. Type of series: physicochemical. Conditions: Example 2 cultures, 30° C. How it is done: Saccharomyces cerevisiae BY4743 (ATCC 201390) was plated from a freezer vial onto YPD agar (Teknova, Hollister, Calif.; Cat. #Y1000) and incubated overnight at 30° C. Cells from the YPD plate were inoculated into a 25 ml pre-culture of YPD broth (Teknova; Cat. #Y5000) with an initial OD600 of 0.06 to 0.08. The pre-culture was grown for 7 hours in an aerobic shaker at 30° C. An aliquot of the pre-culture was inoculated into 200 ml of YPD broth, with an initial OD600 of 0.06 to 0.08, and this culture was incubated with aeration at 30° C. for approximately 17 hours. The optical density of the culture was measured, the culture was centrifuged and the cells were resuspended to yield an OD600 of 5 in fresh YPD broth. This is referred to as a high cell density (HCD) culture. […] This is referred to as a low the cell density (LCD) culture. These cultures were incubated at 30° C. with shaking for 30 minutes for an acclimation period. At the end of the 30 minute acclimation period, the OD600 was measured. 5 ml of low or high cell density culture was dispensed to 15 ml conical tubes which contained different concentrations of the alcohol to be tested. […] All samples were filtered with Acrodisc CR PTFE 0.2 μm filters (Pall Life Sciences, Port Washington, N.Y.) and analyzed using a Shodex SH1011 column (8 mm ID×300 mm length; Showa Denko America, Inc., New York, N.Y.) and a Shodex SH-G as a guard column. […]

Take `CC(C)CO` [Isobutanol, isobutanol]: the Glucose utilization rate in series [1] (5.0 g/L isobutanol) was 2.4 g/gdcw/h; in series [1] (10.0 g/L isobutanol), 2.4 g/gdcw/h; in series [1] (15.0 g/L isobutanol), 1.4 g/gdcw/h; in series [1] (17.5 g/L isobutanol), 0.9 g/gdcw/h; in series [1] (20.0 g/L isobutanol), 0.7 g/gdcw/h. The same molecule registered a sugar consumption rate in series [1] (I. orientalis strains, 20 g/l of isobutanol) of 0.7 g/gdw/h. In addition, in series [2], the “alcohol lost during the incubation period” value was less than 0.01%.
